Experimental data published in patent US20190016689A1, “NOVEL FLUORINATED QUINAZOLINE DERIVATIVES AS EGFR INHIBITORS” (TRILLIUM THERAPEUTICS INC., priority 2016, published 2019).

Experiments:
BT-549 = assay: NCI screening panel (SRB); type: cell-based; settings: Homo sapiens, BT-549 (Breast), 48 h; for CC50: read-out: LC50 (the source's name)
NCI-H522 = assay: NCI screening panel (SRB); type: cell-based; settings: Homo sapiens, NCI-H522 (NSCLC), 48 h; for CC50: read-out: LC50 (the source's name)
EPHA6 = target: T1, EPHA6 (Homo sapiens, UniProt Q9UF33); assay: Binding to EPHA (kinase competition binding, qPCR); design: T7 phage fusion (kinase-tagged phage) or DNA tag for qPCR; made in house; host or cells: E. coli BL21-derived host (T7 phage) or HEK-293; settings: 300 nM, read-out: % Control @ 300 nM
T1 sequence (Q9UF33 23-1036): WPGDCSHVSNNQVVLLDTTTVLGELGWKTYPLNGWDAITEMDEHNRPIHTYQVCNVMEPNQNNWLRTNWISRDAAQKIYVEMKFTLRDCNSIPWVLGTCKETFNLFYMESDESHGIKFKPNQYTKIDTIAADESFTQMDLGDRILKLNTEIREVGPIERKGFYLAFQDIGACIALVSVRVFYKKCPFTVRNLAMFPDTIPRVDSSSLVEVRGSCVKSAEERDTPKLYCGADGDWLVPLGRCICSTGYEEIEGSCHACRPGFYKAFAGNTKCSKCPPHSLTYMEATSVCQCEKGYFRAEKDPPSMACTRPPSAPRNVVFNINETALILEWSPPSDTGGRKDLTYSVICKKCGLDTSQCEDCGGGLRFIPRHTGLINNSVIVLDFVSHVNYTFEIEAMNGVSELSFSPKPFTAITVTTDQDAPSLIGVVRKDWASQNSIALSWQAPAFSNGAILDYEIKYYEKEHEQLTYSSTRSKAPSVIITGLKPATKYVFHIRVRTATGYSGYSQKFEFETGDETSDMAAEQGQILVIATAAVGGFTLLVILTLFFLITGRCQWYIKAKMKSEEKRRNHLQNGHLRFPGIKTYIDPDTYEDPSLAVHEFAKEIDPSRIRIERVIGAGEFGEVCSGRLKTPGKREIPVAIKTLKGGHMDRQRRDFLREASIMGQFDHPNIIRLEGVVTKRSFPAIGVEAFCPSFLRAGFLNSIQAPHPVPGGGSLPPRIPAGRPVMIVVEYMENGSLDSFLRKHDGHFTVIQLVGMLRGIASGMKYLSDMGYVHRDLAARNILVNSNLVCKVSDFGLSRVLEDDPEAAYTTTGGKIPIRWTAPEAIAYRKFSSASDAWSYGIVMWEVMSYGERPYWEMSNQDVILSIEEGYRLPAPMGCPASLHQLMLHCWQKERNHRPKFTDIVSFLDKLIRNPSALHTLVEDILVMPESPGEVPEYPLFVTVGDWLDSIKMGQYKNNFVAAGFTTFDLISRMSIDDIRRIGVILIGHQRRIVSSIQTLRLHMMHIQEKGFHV
Description: The lysates were centrifuged and filtered to remove cell debris. […] All reactions were performed in polystyrene 96-well plates in a final volume of 0.135 ml.

TK-10 = assay: NCI screening panel (SRB); type: cell-based; settings: Homo sapiens, TK-10 (Renal), 48 h; for CC50: read-out: LC50 (the source's name)
EGFR (E746-A750del) = EGFR (E746-A750del) (Homo sapiens, UniProt P00533, DEL746-750); assay: Kinase assays, selectivity panel (qPCR); settings: read-out: % Control @ 300 nM
COLO205 = assay: NCI screening panel (SRB); type: cell-based; settings: Homo sapiens, COLO 205, COLO205 (Colon), 48 h; for CC50: read-out: LC50 (the source's name)
CCRF-CEM = assay: NCI screening panel (SRB); type: cell-based; settings: Homo sapiens, CCRF-CEM (Leukemia), 48 h; for CC50: read-out: LC50 (the source's name)
LOXIMVI = assay: NCI screening panel (SRB); type: cell-based; settings: Homo sapiens, LOX IMVI, LOXIMVI (Melanoma), 48 h; for CC50: read-out: LC50 (the source's name)
MDA-MB-435 = assay: NCI screening panel (SRB); type: cell-based; settings: Homo sapiens, MDA-MB-435 (Melanoma), 48 h; for CC50: read-out: LC50 (the source's name)
IGROV1 = assay: NCI screening panel (SRB); type: cell-based; settings: Homo sapiens, IGROV-1, IGROV1 (Ovarian), 48 h; for CC50: read-out: LC50 (the source's name)
HT29 = assay: NCI screening panel (SRB); type: cell-based; settings: Homo sapiens, HT-29, HT29 (Colon), 48 h; for CC50: read-out: LC50 (the source's name)
[1] = target: EGFR (L747-E749del, A750P) (Homo sapiens, UniProt P00533, A750P/DEL747-749); assay: Kinase assays, selectivity panel (qPCR); settings: read-out: % Control @ 300 nM
SK-MEL-28 = assay: NCI screening panel (SRB); type: cell-based; settings: Homo sapiens, SK-MEL-28 (Melanoma), 48 h; for CC50: read-out: LC50 (the source's name)
RPMI-8226 = assay: NCI screening panel (SRB); type: cell-based; settings: Homo sapiens, RPMI-8226 (Leukemia), 48 h; for CC50: read-out: LC50 (the source's name)
UO-31 = assay: NCI screening panel (SRB); type: cell-based; settings: Homo sapiens, UO-31 (Renal), 48 h; for CC50: read-out: LC50 (the source's name)
EGFR (S752-I759del) = EGFR (S752-I759del) (Homo sapiens, UniProt P00533, DEL752-759); assay: Kinase assays, selectivity panel (qPCR); settings: read-out: % Control @ 300 nM
HCT-15 = assay: NCI screening panel (SRB); type: cell-based; settings: Homo sapiens, HCT-15 (Colon), 48 h; for CC50: read-out: LC50 (the source's name)
EGFR (T790M) = EGFR (T790M) (Homo sapiens, UniProt P00533, T790M); assay: Kinase assays, selectivity panel (qPCR); settings: read-out: % Control @ 300 nM
T-47D = assay: NCI screening panel (SRB); type: cell-based; settings: Homo sapiens, T47D, T-47D (Breast), 48 h; for CC50: read-out: LC50 (the source's name)

Sequence of EGFR (L747-E749del, A750P) (P00533 with tags, fused parts or gaps DEL747-749/A750P): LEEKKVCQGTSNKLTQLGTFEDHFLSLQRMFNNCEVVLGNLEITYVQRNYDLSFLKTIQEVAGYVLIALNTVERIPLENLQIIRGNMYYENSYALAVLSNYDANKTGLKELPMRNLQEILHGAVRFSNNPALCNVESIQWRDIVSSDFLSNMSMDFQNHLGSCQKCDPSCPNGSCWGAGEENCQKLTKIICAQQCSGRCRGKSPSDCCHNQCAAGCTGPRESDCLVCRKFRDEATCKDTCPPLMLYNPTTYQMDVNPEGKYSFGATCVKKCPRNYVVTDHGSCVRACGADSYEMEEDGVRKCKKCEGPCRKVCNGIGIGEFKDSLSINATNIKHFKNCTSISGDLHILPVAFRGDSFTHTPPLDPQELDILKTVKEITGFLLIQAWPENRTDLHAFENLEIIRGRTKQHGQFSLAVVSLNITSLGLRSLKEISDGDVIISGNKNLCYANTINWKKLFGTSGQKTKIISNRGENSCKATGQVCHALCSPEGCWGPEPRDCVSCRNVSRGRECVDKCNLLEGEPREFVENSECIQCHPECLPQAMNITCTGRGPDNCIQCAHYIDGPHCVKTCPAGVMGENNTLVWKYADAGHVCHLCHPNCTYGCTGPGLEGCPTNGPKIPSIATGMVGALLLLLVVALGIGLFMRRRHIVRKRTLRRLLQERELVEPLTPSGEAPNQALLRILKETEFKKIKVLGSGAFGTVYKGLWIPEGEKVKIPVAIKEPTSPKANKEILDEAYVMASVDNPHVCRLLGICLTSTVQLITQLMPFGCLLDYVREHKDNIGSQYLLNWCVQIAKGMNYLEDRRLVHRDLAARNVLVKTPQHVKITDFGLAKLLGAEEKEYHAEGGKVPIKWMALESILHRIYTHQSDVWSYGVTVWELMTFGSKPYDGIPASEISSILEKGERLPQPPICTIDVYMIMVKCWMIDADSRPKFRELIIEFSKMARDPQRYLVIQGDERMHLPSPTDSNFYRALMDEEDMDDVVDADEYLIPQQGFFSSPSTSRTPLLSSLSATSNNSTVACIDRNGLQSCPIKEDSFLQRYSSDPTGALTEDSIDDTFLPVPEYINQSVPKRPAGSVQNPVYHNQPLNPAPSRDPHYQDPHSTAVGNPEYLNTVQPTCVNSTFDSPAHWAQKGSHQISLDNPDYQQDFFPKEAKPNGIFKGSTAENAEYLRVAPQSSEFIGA
Sequence of EGFR (E746-A750del) (P00533 with tags, fused parts or gaps DEL746-750): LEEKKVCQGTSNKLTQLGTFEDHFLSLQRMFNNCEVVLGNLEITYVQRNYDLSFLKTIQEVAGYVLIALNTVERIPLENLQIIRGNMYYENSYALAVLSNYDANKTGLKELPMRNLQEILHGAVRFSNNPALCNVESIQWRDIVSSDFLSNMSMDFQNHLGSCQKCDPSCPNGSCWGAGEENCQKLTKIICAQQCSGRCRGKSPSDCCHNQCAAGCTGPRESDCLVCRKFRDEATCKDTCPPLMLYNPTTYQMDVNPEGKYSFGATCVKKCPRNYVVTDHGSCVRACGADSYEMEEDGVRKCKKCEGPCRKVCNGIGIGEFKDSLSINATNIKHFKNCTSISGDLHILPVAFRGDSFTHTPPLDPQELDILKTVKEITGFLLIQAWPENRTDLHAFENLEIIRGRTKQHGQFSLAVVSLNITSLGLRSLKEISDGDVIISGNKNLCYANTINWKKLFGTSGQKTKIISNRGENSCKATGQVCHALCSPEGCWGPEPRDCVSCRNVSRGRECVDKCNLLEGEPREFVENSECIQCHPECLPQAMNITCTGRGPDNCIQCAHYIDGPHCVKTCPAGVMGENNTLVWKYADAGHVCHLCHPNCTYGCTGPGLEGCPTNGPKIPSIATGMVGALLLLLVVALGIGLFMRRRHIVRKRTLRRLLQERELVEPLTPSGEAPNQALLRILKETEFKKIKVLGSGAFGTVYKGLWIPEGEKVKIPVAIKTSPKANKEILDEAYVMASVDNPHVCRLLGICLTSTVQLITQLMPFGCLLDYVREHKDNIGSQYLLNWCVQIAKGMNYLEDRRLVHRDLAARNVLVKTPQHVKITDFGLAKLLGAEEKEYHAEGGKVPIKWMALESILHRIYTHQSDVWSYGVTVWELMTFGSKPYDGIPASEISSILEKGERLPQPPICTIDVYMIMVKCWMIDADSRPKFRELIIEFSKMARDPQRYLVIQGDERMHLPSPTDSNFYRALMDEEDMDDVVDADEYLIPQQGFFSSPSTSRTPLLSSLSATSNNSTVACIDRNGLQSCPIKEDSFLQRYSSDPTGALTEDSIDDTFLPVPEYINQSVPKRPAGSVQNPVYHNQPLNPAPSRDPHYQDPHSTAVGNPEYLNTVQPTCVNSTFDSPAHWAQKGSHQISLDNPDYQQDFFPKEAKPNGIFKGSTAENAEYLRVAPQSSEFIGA
Sequence of EGFR (T790M) (P00533 25-1210 T790M): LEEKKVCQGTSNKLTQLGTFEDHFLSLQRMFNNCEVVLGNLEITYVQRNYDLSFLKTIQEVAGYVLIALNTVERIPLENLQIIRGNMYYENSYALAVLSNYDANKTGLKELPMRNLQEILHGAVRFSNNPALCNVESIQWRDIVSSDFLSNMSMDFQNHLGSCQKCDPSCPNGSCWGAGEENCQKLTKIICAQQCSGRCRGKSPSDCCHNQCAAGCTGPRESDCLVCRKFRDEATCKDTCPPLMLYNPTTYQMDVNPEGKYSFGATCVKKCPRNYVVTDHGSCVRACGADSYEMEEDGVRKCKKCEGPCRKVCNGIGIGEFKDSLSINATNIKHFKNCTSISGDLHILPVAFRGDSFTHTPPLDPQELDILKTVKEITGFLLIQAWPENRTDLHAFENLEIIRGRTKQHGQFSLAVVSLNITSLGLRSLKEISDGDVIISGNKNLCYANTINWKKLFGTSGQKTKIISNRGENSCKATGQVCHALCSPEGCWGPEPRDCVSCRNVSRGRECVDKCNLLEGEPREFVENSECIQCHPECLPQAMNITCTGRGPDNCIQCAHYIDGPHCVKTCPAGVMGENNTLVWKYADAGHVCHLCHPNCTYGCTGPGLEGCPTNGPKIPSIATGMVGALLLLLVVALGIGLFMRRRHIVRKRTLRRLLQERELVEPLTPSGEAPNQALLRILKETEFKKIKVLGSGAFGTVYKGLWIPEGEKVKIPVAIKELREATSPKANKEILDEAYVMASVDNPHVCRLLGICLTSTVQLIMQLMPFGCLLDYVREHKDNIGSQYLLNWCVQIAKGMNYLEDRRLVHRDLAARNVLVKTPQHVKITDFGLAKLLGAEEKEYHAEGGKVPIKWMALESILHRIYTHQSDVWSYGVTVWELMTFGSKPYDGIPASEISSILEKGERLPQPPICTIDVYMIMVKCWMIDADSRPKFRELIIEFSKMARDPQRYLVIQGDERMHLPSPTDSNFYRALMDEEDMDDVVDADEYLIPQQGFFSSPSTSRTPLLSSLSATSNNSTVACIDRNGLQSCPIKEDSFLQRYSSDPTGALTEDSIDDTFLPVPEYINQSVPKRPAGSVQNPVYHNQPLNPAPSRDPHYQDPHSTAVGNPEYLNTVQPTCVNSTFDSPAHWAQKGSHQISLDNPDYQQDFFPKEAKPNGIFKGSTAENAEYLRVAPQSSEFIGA
Sequence of EGFR (S752-I759del) (P00533 with tags, fused parts or gaps DEL752-759): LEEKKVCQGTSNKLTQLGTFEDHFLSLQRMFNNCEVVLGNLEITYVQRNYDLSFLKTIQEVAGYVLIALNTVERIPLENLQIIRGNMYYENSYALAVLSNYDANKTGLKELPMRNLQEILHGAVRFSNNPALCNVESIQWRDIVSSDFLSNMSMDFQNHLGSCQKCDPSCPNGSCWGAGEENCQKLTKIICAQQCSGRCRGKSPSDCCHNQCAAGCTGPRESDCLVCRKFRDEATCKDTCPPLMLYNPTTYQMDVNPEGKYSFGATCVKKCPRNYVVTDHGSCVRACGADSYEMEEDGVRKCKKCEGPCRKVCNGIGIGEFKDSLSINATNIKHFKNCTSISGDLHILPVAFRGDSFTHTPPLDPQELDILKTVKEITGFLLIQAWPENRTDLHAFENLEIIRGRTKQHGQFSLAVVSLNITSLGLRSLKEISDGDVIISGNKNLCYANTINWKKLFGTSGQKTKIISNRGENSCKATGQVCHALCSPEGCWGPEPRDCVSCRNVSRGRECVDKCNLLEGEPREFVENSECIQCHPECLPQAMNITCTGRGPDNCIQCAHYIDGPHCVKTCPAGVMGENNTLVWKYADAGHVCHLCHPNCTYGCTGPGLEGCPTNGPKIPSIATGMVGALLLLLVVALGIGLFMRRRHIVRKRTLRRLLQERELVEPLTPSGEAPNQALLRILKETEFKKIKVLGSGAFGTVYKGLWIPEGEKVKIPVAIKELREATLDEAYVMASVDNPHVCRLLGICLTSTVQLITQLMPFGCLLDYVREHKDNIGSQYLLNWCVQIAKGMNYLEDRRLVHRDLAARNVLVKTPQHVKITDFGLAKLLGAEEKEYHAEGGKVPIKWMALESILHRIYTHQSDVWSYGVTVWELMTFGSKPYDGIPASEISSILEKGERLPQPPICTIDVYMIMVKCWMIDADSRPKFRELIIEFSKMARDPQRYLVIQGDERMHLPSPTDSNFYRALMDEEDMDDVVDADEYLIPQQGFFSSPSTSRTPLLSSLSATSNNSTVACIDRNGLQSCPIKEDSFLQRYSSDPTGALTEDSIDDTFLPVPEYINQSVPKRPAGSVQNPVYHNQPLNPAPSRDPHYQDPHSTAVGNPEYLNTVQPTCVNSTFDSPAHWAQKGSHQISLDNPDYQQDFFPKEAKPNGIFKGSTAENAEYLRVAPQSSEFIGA

Question: With `CN(C)C/C=C/C(=O)Nc1cc2c(Nc3ccc(F)c(Cl)c3F)ncnc2cc1OCCOC(F)F.O=C(O)/C=C\C(=O)O.O=C(O)/C=C\C(=O)O` [Example I-9-MA, (E)-N-[4-(3-chloro-2,4-difluoro-anilino)-7-[2-(difluoromethoxy)ethoxy]quinazolin-6-yl]-4-(dimethylamino)but-2-enamide di-maleic acid salt] as the molecule, how does the GI50 (BT-549) read?
Answer: 1.69 µM

Question: And the CC50 (BT-549)?
Answer: 32.2 µM

Question: And the GI50 (NCI-H522)?
Answer: < 0.01 µM

Question: What about the CC50 (NCI-H522) of the same molecule?
Answer: 9.17 µM

Question: And the remaining binding at 0.3 µM (EPHA6)?
Answer: 3.5%

Question: What about the GI50 (TK-10) of the same molecule?
Answer: < 0.01 µM

Question: What about the CC50 (TK-10) of the same molecule?
Answer: 21.8 µM

Question: And the remaining activity at 0.3 µM (EGFR (E746-A750del))?
Answer: 3.6%

Question: And the GI50 (COLO205)?
Answer: 1.23 µM

Question: And the CC50 (COLO205)?
Answer: 31.7 µM

Question: And the GI50 (CCRF-CEM)?
Answer: 2.47 µM

Question: What about the CC50 (CCRF-CEM) of the same molecule?
Answer: > 100 µM

Question: And the GI50 (LOXIMVI)?
Answer: 0.944 µM

Question: What about the CC50 (LOXIMVI) of the same molecule?
Answer: 4.91 µM

Question: What about the GI50 (MDA-MB-435) of the same molecule?
Answer: 1.17 µM

Question: And the CC50 (MDA-MB-435)?
Answer: 27.2 µM

Question: What about the GI50 (IGROV1) of the same molecule?
Answer: < 0.01 µM

Question: And the CC50 (IGROV1)?
Answer: 32.5 µM

Question: And the GI50 (HT29)?
Answer: 0.383 µM

Question: What about the CC50 (HT29) of the same molecule?
Answer: 62.6 µM

Question: What about the remaining activity at 0.3 µM [1] of the same molecule?
Answer: 0.45%

Question: What about the GI50 (SK-MEL-28) of the same molecule?
Answer: 2.29 µM

Question: And the CC50 (SK-MEL-28)?
Answer: 36.2 µM

Question: And the GI50 (RPMI-8226)?
Answer: 1.29 µM

Question: And the CC50 (RPMI-8226)?
Answer: > 100 µM

Question: And the GI50 (UO-31)?
Answer: < 0.01 µM

Question: What about the CC50 (UO-31) of the same molecule?
Answer: 14.6 µM

Question: What about the remaining activity at 0.3 µM (EGFR (S752-I759del)) of the same molecule?
Answer: 0.5%

Question: And the GI50 (HCT-15)?
Answer: 0.675 µM

Question: What about the CC50 (HCT-15) of the same molecule?
Answer: 9.46 µM

Question: And the remaining activity at 0.3 µM (EGFR (T790M))?
Answer: 0.1%

Question: And the GI50 (T-47D)?
Answer: < 0.01 µM

Question: And the CC50 (T-47D)?
Answer: 88.1 µM

Question: With `O=C(/C=C/CN1CCCCC1)Nc1cc2c(Nc3ccc(F)c(Cl)c3F)ncnc2cc1OCCOC(F)F.O=C(O)/C=C\C(=O)O.O=C(O)/C=C\C(=O)O` [Example I-10-MA, (E)-N-[4-(3-chloro-2,4-difluoro-anilino)-7-[2-(difluoromethoxy)ethoxy]quinazolin-6-yl]-4-(1-piperidyl)but-2-enamide di-maleic acid salt] as the molecule, how does the GI50 (BT-549) read?
Answer: 2.47 µM

Question: What about the CC50 (BT-549) of the same molecule?
Answer: 36.2 µM

Question: And the GI50 (NCI-H522)?
Answer: 0.0559 µM

Question: And the CC50 (NCI-H522)?
Answer: 7.8 µM

Question: And the remaining binding at 0.3 µM (EPHA6)?
Answer: 3.9%

Question: And the GI50 (TK-10)?
Answer: < 0.01 µM

Question: What about the CC50 (TK-10) of the same molecule?
Answer: 35.1 µM

Question: What about the remaining activity at 0.3 µM (EGFR (E746-A750del)) of the same molecule?
Answer: 2.7%

Question: What about the GI50 (COLO205) of the same molecule?
Answer: 1.74 µM

Question: What about the CC50 (COLO205) of the same molecule?
Answer: > 100 µM

Question: And the GI50 (CCRF-CEM)?
Answer: 2.27 µM

Question: What about the CC50 (CCRF-CEM) of the same molecule?
Answer: > 100 µM

Question: What about the GI50 (LOXIMVI) of the same molecule?
Answer: 1.34 µM

Question: What about the CC50 (LOXIMVI) of the same molecule?
Answer: 5.49 µM

Question: What about the GI50 (MDA-MB-435) of the same molecule?
Answer: 1.8 µM

Question: And the CC50 (MDA-MB-435)?
Answer: 28.6 µM

Question: What about the GI50 (IGROV1) of the same molecule?
Answer: 0.0331 µM

Question: What about the CC50 (IGROV1) of the same molecule?
Answer: > 100 µM

Question: And the GI50 (HT29)?
Answer: 1.14 µM

Question: What about the CC50 (HT29) of the same molecule?
Answer: 51.4 µM

Question: What about the remaining activity at 0.3 µM [1] of the same molecule?
Answer: 0.9%

Question: And the GI50 (SK-MEL-28)?
Answer: 2.49 µM

Question: What about the CC50 (SK-MEL-28) of the same molecule?
Answer: 36.5 µM

Question: And the GI50 (RPMI-8226)?
Answer: 1.64 µM

Question: What about the CC50 (RPMI-8226) of the same molecule?
Answer: 58.9 µM

Question: What about the GI50 (UO-31) of the same molecule?
Answer: 0.0134 µM

Question: What about the CC50 (UO-31) of the same molecule?
Answer: 39.1 µM

Question: And the remaining activity at 0.3 µM (EGFR (S752-I759del))?
Answer: 0%

Question: What about the GI50 (HCT-15) of the same molecule?
Answer: 1.34 µM

Question: What about the CC50 (HCT-15) of the same molecule?
Answer: 23 µM

Question: What about the remaining activity at 0.3 µM (EGFR (T790M)) of the same molecule?
Answer: 0.75%

Question: What about the GI50 (T-47D) of the same molecule?
Answer: 0.0814 µM

Question: What about the CC50 (T-47D) of the same molecule?
Answer: > 100 µM
